Experimental data from patent US20250090472A1, “LIPID NANOPARTICLE COMPOSITIONS AND USES THEREOF” (BEIJING JITAI PHARMACEUTICAL TECHNOLOGY CO., LTD., priority 2023, published 2025).

System: C57BL/6 mice
Assay: In vivo bioluminescence assay of LNPs encapsulating luciferase mRNA (without permanently cationic lipid)
Settings: intravenous single dose 0.5 mg/kg luciferase mRNA, 6 h after administration, group mean
Experimental: The delivery effect and safety of nanoparticles encapsulated with luciferase mRNA (Trilink, L-7202) in mice were evaluated. The test mice were SPF-grade C57BL/6 mice, female, 6-8 weeks old, weighing 18-22 g, and were purchased from SPF (Beijing) Biotechnology Co., Ltd. All animals were acclimatized for more than 7 days prior to the experiment, and had free access to food and water during the experiment. The conditions include alternating light and dark for 12/12 h, the indoor temperature of 20-26° C. and the humidity of 40-70%. The mice were randomly grouped. The lipid nanoparticles encapsulated with luciferase mRNA prepared above were injected into mice by intravenous administration at a single dose of 0.5 mg/kg mRNA, and the mice were subjected to in vivo bioluminescence assay using a Small Animal In Vivo Imaging System (IVIS LUMINA III, purchased from PerkinElmer) at 6 h after administration. The assay was performed as follows: D-luciferin solution was prepared in saline at a concentration of 15 mg/mL, and each mouse was given the substrate by intraperitoneal injection. At ten minutes after administration of the substrate, the mice were anesthetized in an anesthesia chamber with isoflurane at a concentration of 2.5%. The anesthetized mice were placed in IVIS for luminescent imaging. Data acquisition and analysis were performed on the concentrated distribution area of luminescence.
The in vivo delivery efficiency of lipid nanoparticle carriers was expressed as the mean values of fluorescence intensity and total photon count in different animals measured at 6 hours after administration of the lipid nanoparticle within the same subject group, as shown in Table 4. Higher values of fluorescence intensity and total photon count indicate higher in vivo delivery efficiency of this mRNA fragment by the lipid nanoparticles.

Row | Structure (SMILES) | Total photon count in vivo (Total Flux)
1 | CCCCC/C=C\C/C=C\CCCCCCCCC(CCCCCCCC/C=C\C/C=C\CCCCC)OC(=O)CCCN(C)C [Dlin-MC3-DMA, reference compound] | 8.04E+09
2 | CCCCCCC#CCCOC(=O)C(C)(C)CCCCCC(CCCCCC(C)(C)C(=O)OCCC#CCCCCCC)OC(=O)CCCN(C)C [Compound 24] | 5.56E+09
3 | CCCCCCCCCSC(=O)C(C)(C)CCCCCC(CCCCCC(C)(C)C(=O)OCC#CCCC(CCCC)CCCC)OC(=O)CCCN(C)C (centres unmarked) [Compound 119] | 3.25E+10
4 | CCCCCCCCCOC(=O)C(C)(C)CCCCCC(CCCCCC(C)(C)C(=O)OCCCCCCCCC)OC(=O)CC1CCN(CCO)CC1 [Compound 113] | 3.59E+08
5 | CCCCCCCCN(CCCCCCCC)CCOC(=O)C(C)(C)CCCCCC(CCCCCC(C)(C)C(=O)OCCN(CCCCCCCC)CCCCCCCC)OC(=O)CCN(C)C [Compound 15] | 4.89E+08
6 | CCCCCCCCCCOC(=O)C(C)(C)CCCCCC(CCCCCC(C)(C)C(=O)OCCCCCCCCCC)OC(=O)C1CCN(C)CC1 [Compound 99] | 5.30E+09
7 | CCCCCCCCCCOC(=O)C(C)(C)CCCCCC(CCCCCC(C)(C)C(=O)OCCCCCCCCCC)OC(=O)CCN(C)C [Compound 1] | 6.43E+08
8 | CC(C)CCCCCCCOC(=O)CCC(C)(C)CCCC(CCCC(C)(C)CCC(=O)OCCCCCCCC(C)C)OC(=O)CCCN(C)C [Compound 127] | 3.59E+10
9 | CCCCCCCCCOC(=O)CC(C)(C)CCCCC(CCCCC(C)(C)CC(=O)OCCCCCCCCC)OC(=O)CCCN(C)C [Compound 97] | 3.37E+09
10 | CCCCCCCCCOC(=O)C(C)(C)CCCCCC(CCCCCC(C)(C)C(=O)OCC(CCCCC)CCCCCCC)OC(=O)CC1CCN(CCO)CC1 (centres unmarked) [Compound 114] | 1.06E+08
11 | CCCCCCCCCSC(=O)C(C)(C)CCCCCC(CCCCCC(C)(C)C(=O)SCCCCCCCCC)OC(=O)CC1CCN(CCO)CC1 [Compound 110] | 2.06E+08
